Results reported in patent publication US10986838B2, “Herbicides” (SYNGENTA PARTICIPATIONS AG, priority 2016, dated 2021).

Key:
Format in all cases: in vivo
[1] = system: Abutilon theophrasti (ABUTH); experiment: Pre-emergence herbicidal activity (B1); details: Test 1b, 1000 g/ha, evaluated after 13 days, 5=total damage to plant, 0=no damage to plant
Experimental: (§1) B1 Pre-Emergence Herbicidal Activity Seeds of a variety of test species were sown in standard soil in pots: Triticum aestivium (TRZAW), Avena fatua (AVEFA), Alopecurus myosuroides (ALOMY), Echinochloa crus-galli (ECHCG), Lolium perenne (LOLPE), Zea Mays (ZEAMX), Abutilon theophrasti (ABUTH), Amaranthus retroflexus (AMARE) and Setaria faberi (SETFA). After cultivation for one day (pre-emergence) under controlled conditions in a glasshouse (at 24/16° C., day/night; 14 hours light; 65% humidity), the plants were sprayed with an aqueous spray solution derived from the formulation of the technical active ingredient in acetone/water (50:50) solution containing 0.5% Tween 20 (polyoxyethelyene sorbitan monolaurate, CAS RN 9005-64-5). The test plants were then grown in a glasshouse under controlled conditions (at 24/16° C., day/night; 14 hours light; 65% humidity) and watered twice daily. After 13 days, the test was evaluated (5=total damage to plant; 0=no damage to plant). Tables B1a and B1b Control of Weed Species by Compound of Formula (I) after Pre-Emergence Application

[2] = system: Amaranthus retroflexus (AMARE); experiment: Pre-emergence herbicidal activity (B1); details: Test 1b, 1000 g/ha, evaluated after 13 days, 5=total damage to plant, 0=no damage to plant
Experimental: as §1

[3] = system: Echinochloa crus-galli (ECHCG); experiment: Pre-emergence herbicidal activity (B1); details: Test 1b, 1000 g/ha, evaluated after 13 days, 5=total damage to plant, 0=no damage to plant
Experimental: as §1

[4] = system: Lolium perenne (LOLPE); experiment: Pre-emergence herbicidal activity (B1); details: Test 1b, 1000 g/ha, evaluated after 13 days, 5=total damage to plant, 0=no damage to plant
Experimental: as §1

[5] = system: Setaria faberi (SETFA); experiment: Pre-emergence herbicidal activity (B1); details: Test 1b, 1000 g/ha, evaluated after 13 days, 5=total damage to plant, 0=no damage to plant
Experimental: as §1

[6] = system: Zea Mays (ZEAMX); experiment: Pre-emergence herbicidal activity (B1); details: Test 1b, 1000 g/ha, evaluated after 13 days, 5=total damage to plant, 0=no damage to plant
Experimental: as §1

[7] = system: Abutilon theophrasti (ABUTH); experiment: Post-emergence herbicidal activity (B2); details: Test B2b, 1000 g/ha, evaluated after 13 days, 5=total damage to plant, 0=no damage to plant
Experimental: (§2) B2 Post-Emergence Herbicidal Activity Seeds of a variety of test species were sown in standard soil in pots: Triticum aestivium (TRZAW), Avena fatua (AVEFA), Alopecurus myosuroides (ALOMY), Echinochloa crus-galli (ECHCG), Lolium perenne (LOLPE), Zea Mays (ZEAMX), Abutilon theophrasti (ABUTH), Amaranthus retroflexus (AMARE) and Setaria faberi (SETFA). After 8 days cultivation (post-emergence) under controlled conditions in a glasshouse (at 24/16° C., day/night; 14 hours light; 65% humidity), the plants were sprayed with an aqueous spray solution derived from the formulation of the technical active ingredient in acetone/water (50:50) solution containing 0.5% Tween 20 (polyoxyethelyene sorbitan monolaurate, CAS RN 9005-64-5). The test plants were then grown in a glasshouse under controlled conditions (at 24/16° C., day/night; 14 hours light; 65% humidity) and watered twice daily. After 13 days, the test was evaluated (5=total damage to plant; 0=no damage to plant). Tables B2a and B2b Control of Weed Species by Compound of Formula (I) after Post-Emergence Application

[8] = system: Amaranthus retroflexus (AMARE); experiment: Post-emergence herbicidal activity (B2); details: Test B2b, 1000 g/ha, evaluated after 13 days, 5=total damage to plant, 0=no damage to plant
Experimental: as §2

[9] = system: Echinochloa crus-galli (ECHCG); experiment: Post-emergence herbicidal activity (B2); details: Test B2b, 1000 g/ha, evaluated after 13 days, 5=total damage to plant, 0=no damage to plant
Experimental: as §2

[10] = system: Lolium perenne (LOLPE); experiment: Post-emergence herbicidal activity (B2); details: Test B2b, 1000 g/ha, evaluated after 13 days, 5=total damage to plant, 0=no damage to plant
Experimental: as §2

[11] = system: Setaria faberi (SETFA); experiment: Post-emergence herbicidal activity (B2); details: Test B2b, 1000 g/ha, evaluated after 13 days, 5=total damage to plant, 0=no damage to plant
Experimental: as §2

[12] = system: Zea Mays (ZEAMX); experiment: Post-emergence herbicidal activity (B2); details: Test B2b, 1000 g/ha, evaluated after 13 days, 5=total damage to plant, 0=no damage to plant
Experimental: as §2

Row | SMILES | ABUTH damage score [1] | AMARE damage score [2] | ECHCG damage score [3] | LOLPE damage score [4] | SETFA damage score [5] | ZEAMX damage score [6] | ABUTH damage score [7] | AMARE damage score [8] | ECHCG damage score [9] | LOLPE damage score [10] | SETFA damage score [11] | ZEAMX damage score [12]
1 | CNc1ccc(-c2cncc(F)c2)nc1C(F)(F)F [Compound A5] | 1 | 2 | 2 | 1 | 5 | 4 | 1 | 1 | 4 | 4 | 5 | 5
2 | CNc1ccc(-c2cncc(C)c2)nc1C(F)(F)F [Compound A6] | 1 | 1 | 0 | 0 | 1 | 0 | 0 | 0 | 1 | 1 | 3 | 1
3 | CNc1ccc(-c2cncc(C(F)(F)F)c2)nc1C(F)(F)F [Compound A7] | 1 | 1 | 0 | 0 | 3 | 0 | 0 | 1 | 1 | 1 | 3 | 1
4 | Cc1nc(-c2cncc(F)c2)ccc1N [Compound A8] | 0 | 0 | 2 | 1 | 5 | 3 | 0 | 0 | 4 | 3 | 5 | 5
5 | N#Cc1nc(-c2cncc(F)c2)ccc1N [Compound A9, 3-amino-6-(5-fluoro-3-pyridyl)pyridine-2-carbonitrile] | 1 | 1 | 4 | 0 | 4 | 2 | 1 | 1 | 4 | 1 | 4 | 4
6 | CNc1ccc(-c2cncc(OC)c2)nc1C(F)(F)F [Compound A10] | 1 | 1 | 0 | 0 | 2 | 1 | 0 | 1 | 1 | 1 | 3 | 2
7 | CNc1ccc(-c2cccnc2)nc1C(F)(F)F [Compound A11] | 1 | 1 | 2 | 1 | 5 | 1 | 1 | 1 | 4 | 4 | 5 | 2
8 | Cc1nc(-c2cncc(C(F)(F)F)c2)ccc1N [Compound A12] | 0 | 0 | 0 | 0 | 0 | 0 | 0 | 0 | 1 | 0 | 1 | 1
9 | COc1cncc(-c2ccc(N)c(C)n2)c1 [Compound A13] | 0 | 0 | 0 | 0 | 0 | 0 | 0 | 1 | 1 | 0 | 1 | 2
10 | Cc1nc(-c2cncnc2)ccc1N [Compound A14] | 0 | 0 | 1 | 1 | 2 | 1 | 0 | 2 | 2 | 1 | 3 | 2
11 | CNc1ccc(-c2cncnc2)nc1C [Compound A15] | 0 | 0 | 1 | 0 | 1 | 1 | 0 | 1 | 2 | 1 | 2 | 1
12 | CC(Nc1ccc(-c2cncc(F)c2)nc1C(F)(F)F)c1cccc(C(F)(F)F)c1 (stereo not drawn) [Compound A16] | 0 | 0 | 1 | 0 | 4 | 1 | 0 | 0 | 3 | 1 | 5 | 3
13 | CC(Nc1ccc(-c2cncc(F)c2)nc1C(F)(F)F)c1ccccc1 (stereo not drawn) [Compound A17] | 0 | 0 | 0 | 0 | 2 | 0 | 0 | 0 | 4 | 1 | 4 | 4
14 | Fc1cncc(-c2ccc(NCc3cccc(Cl)c3)c(C(F)(F)F)n2)c1 [Compound A18] | 0 | 0 | 2 | 0 | 4 | 4 | 0 | 0 | 3 | 2 | 5 | 5
15 | COC(=O)C(C)Nc1ccc(-c2cncc(F)c2)nc1C(F)(F)F (stereo not drawn) [Compound A19] | 0 | 1 | 3 | 2 | 4 | 5 | 1 | 2 | 4 | 3 | 5 | 5
16 | Cc1ccc(CNc2ccc(-c3cncc(F)c3)nc2C(F)(F)F)cc1 [Compound A20] | 0 | 0 | 2 | 0 | 5 | 3 | 0 | 0 | 3 | 2 | 5 | 5
17 | Fc1cncc(-c2ccc(NCc3ccccc3)c(C(F)(F)F)n2)c1 [Compound A21] | 0 | 1 | 3 | 2 | 5 | 3 | 0 | 1 | 1 | 1 | 5 | 5
